In the assay the test system is cos-7 cells. Briefly: DNA transfection: luciferase expression relative to Lipofectamine 2000. Format: cell-based. As to conditions: for Luciferase expression as a percentage of that achieved using Lipofectamine 2000: 300 ng Luciferase DNA per well; for Luciferase expression as a percentage of that achieved using Lipofectamine 2000 / % of the luciferase activity obtained from the use of Lipofectamine 2000: luciferase assay after 48 hours; for % of the luciferase activity obtained from the use of Lipofectamine 2000: 300 ng DNA per well; for luciferase expression (second part of table, values relative to LIPO2000): 300 ng of DNA per well. In a few lines:
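Lipid/DNA complexes, 300 ng luciferase DNA per well at 2.5-25 w/w lipid:DNA, were formed in sodium acetate/Optimem and added to overnight-seeded cos-7 cells. Luciferase was measured by Bright-Glo luminescence after 48 hours and quantified against an enzyme standard curve. Values are expressed as % of Lipofectamine 2000 at 2.5 w/w.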

Regarding `CCCCCCCCCCOC(=O)CCN(CCC(=O)OCCCCCCCCCC)CC1COC(C)(C)O1` (stereo not drawn) [LB7], the “Luciferase expression as a percentage of that achieved using Lipofectamine 2000” value (“Luciferase expression as a percentage” for short) by setting is: (lipid/DNA 2.5 w/w) 0.1%; (lipid/DNA 5 w/w) 0.1%; (lipid/DNA 10 w/w) 0.1%; (lipid/DNA 15 w/w) 0.1%; (lipid/DNA 20 w/w) 0.1%; (lipid/DNA 25 w/w) 0.2%.

Turning to `CCCCCCCCCCCCCCCOC(=O)CC[N+](C)(CCC[N+](C)(CCC(=O)OCCCCCCCCCCCCCCC)CCC(=O)OCCCCCCCCCCCCCCC)CCC(=O)OCCCCCCCCCCCCCCC` [QG100], the “% of the luciferase activity obtained from the use of Lipofectamine 2000” value stood at 11.2% (2.5 w/w lipid to DNA); 32.1% (5 w/w lipid to DNA); 57.1% (10 w/w lipid to DNA); 102.6% (15 w/w lipid to DNA); 93.0% (20 w/w lipid to DNA); 94.5% (25 w/w lipid to DNA). In addition, the “luciferase expression (second part of table, values relative to LIPO2000)” value (lipid/DNA 2.5 w/w) came to 11.2; the “luciferase expression (second part of table, values relative to LIPO2000)” value (lipid/DNA 5 w/w) came out at 32.1; the “luciferase expression (second part of table, values relative to LIPO2000)” value (lipid/DNA 10 w/w) is listed as 57.1; the “luciferase expression (second part of table, values relative to LIPO2000)” value (lipid/DNA 15 w/w) is 102.6; the “luciferase expression (second part of table, values relative to LIPO2000)” value (lipid/DNA 20 w/w) was 93.0; the “luciferase expression (second part of table, values relative to LIPO2000)” value (lipid/DNA 25 w/w) came out at 94.5.

As for `CCCCCCCCCCCCCCOC(=O)CCN(CCCn1ccnc1)CCC(=O)OCCCCCCCCCCCCCC` [LF93], the “Luciferase expression as a percentage” value reads like this: (lipid/DNA 2.5 w/w) 32.0%; (lipid/DNA 5 w/w) 50.4%; (lipid/DNA 10 w/w) 15.0%; (lipid/DNA 15 w/w) 150.7%; (lipid/DNA 20 w/w) 143.2%; (lipid/DNA 25 w/w) 171.3%. The “luciferase expression (second part of table, values relative to LIPO2000)” value is 32.0 (lipid/DNA 2.5 w/w); 50.4 (lipid/DNA 5 w/w); 15.0 (lipid/DNA 10 w/w); 150.7 (lipid/DNA 15 w/w); 143.2 (lipid/DNA 20 w/w); 171.3 (lipid/DNA 25 w/w).

In the case of `CCCCCCCCCCOC(=O)CCN(CCC(=O)OCCCCCCCCCC)C(C)(CO)CO` [LB26], the “Luciferase expression as a percentage” value is, setting by setting: (lipid/DNA 2.5 w/w) 0.1%; (lipid/DNA 5 w/w) 0.1%; (lipid/DNA 10 w/w) 0.1%; (lipid/DNA 15 w/w) 0.1%; (lipid/DNA 20 w/w) 0.1%; (lipid/DNA 25 w/w) 0.1%.

For the compound `CCCCCCCCCCCCOC(=O)CCN(CCO)CCN(CCO)CCC(=O)OCCCCCCCCCCCC` [LD103], the “Luciferase expression as a percentage” value is, setting by setting: (lipid/DNA 2.5 w/w) 11.6%; (lipid/DNA 5 w/w) 17.2%; (lipid/DNA 10 w/w) 24.4%; (lipid/DNA 15 w/w) 27.1%; (lipid/DNA 20 w/w) 12.3%; (lipid/DNA 25 w/w) 6.6%.

For `CCCCCCCCCCCCCCCOC(=O)CCN(CCC(=O)OCCCCCCCCCCCCCCC)C(CO)CO` [LG25], the “Luciferase expression as a percentage” value is, setting by setting: (lipid/DNA 2.5 w/w) 15.9%; (lipid/DNA 5 w/w) 32.0%; (lipid/DNA 10 w/w) 43.2%; (lipid/DNA 15 w/w) 56.9%; (lipid/DNA 20 w/w) 42.1%; (lipid/DNA 25 w/w) 63.9%. Moreover, the “luciferase expression (second part of table, values relative to LIPO2000)” value by setting is: (lipid/DNA 2.5 w/w) 15.9; (lipid/DNA 5 w/w) 32.0; (lipid/DNA 10 w/w) 43.2; (lipid/DNA 15 w/w) 56.9; (lipid/DNA 20 w/w) 42.1; (lipid/DNA 25 w/w) 63.9.

As to `CCCCCCCCCCOC(=O)CCN(CC)CCN(CC)CCC(=O)OCCCCCCCCCC` [LB61], the “Luciferase expression as a percentage” value is on record as 0.1% (lipid/DNA 2.5 w/w); 0.1% (lipid/DNA 5 w/w); 0.1% (lipid/DNA 10 w/w); 0.1% (lipid/DNA 15 w/w); 0.1% (lipid/DNA 20 w/w); 0.1% (lipid/DNA 25 w/w).

Regarding `CCCCCCCCCCCCOC(=O)CCN(CCCN(CC)CC)CCC(=O)OCCCCCCCCCCCC` [LD81], the “Luciferase expression as a percentage” value reads like this: (lipid/DNA 2.5 w/w) 0.1%; (lipid/DNA 5 w/w) 0.1%; (lipid/DNA 10 w/w) 15.2%; (lipid/DNA 15 w/w) 7.6%; (lipid/DNA 20 w/w) 5.4%; (lipid/DNA 25 w/w) 2.3%.

Regarding `CCCCCCCCCCCCCCCCCCOC(=O)CCN(CCC(=O)OCCCCCCCCCCCCCCCCCC)CCC1OCCO1` [LH6], the “Luciferase expression as a percentage” value amounted to 0.0% (lipid/DNA 2.5 w/w); 0.0% (lipid/DNA 5 w/w); 0.0% (lipid/DNA 10 w/w); 0.0% (lipid/DNA 15 w/w); 0.0% (lipid/DNA 20 w/w); 0.0% (lipid/DNA 25 w/w).

Take `CCCCCCCCCCCCOC(=O)CCN(C)CCCN(C)CCC(=O)OCCCCCCCCCCCC` [LD63]: the “Luciferase expression as a percentage” value is, setting by setting: (lipid/DNA 2.5 w/w) 0.7%; (lipid/DNA 5 w/w) 0.8%; (lipid/DNA 10 w/w) 0.3%; (lipid/DNA 15 w/w) 0.3%; (lipid/DNA 20 w/w) 0.4%; (lipid/DNA 25 w/w) 0.6%.

As for `CCCCCCCCCCCCCCCCCCOC(=O)CCN(CCC(=O)OCCCCCCCCCCCCCCCCCC)CC(OC)OC` [LH13], the “Luciferase expression as a percentage” value (lipid/DNA 2.5 w/w) came to 0.0%; the “Luciferase expression as a percentage” value (lipid/DNA 5 w/w) was 0.0%; the “Luciferase expression as a percentage” value (lipid/DNA 10 w/w) was found to be 0.0%; the “Luciferase expression as a percentage” value (lipid/DNA 15 w/w) was 0.0%; the “Luciferase expression as a percentage” value (lipid/DNA 20 w/w) is 0.0%; the “Luciferase expression as a percentage” value (lipid/DNA 25 w/w) came to 0.0%.

Regarding `CCCCCCCCCCCCCCOC(=O)CCN(CCC(=O)OCCCCCCCCCCCCCC)CC(OC)OC` [LF13], the “Luciferase expression as a percentage” value runs as follows: (lipid/DNA 2.5 w/w) 0.1%; (lipid/DNA 5 w/w) 0.1%; (lipid/DNA 10 w/w) 0.0%; (lipid/DNA 15 w/w) 0.0%; (lipid/DNA 20 w/w) 0.1%; (lipid/DNA 25 w/w) 0.1%.

In the case of `CCCCCCCCCCCCOC(=O)CCN(CCC(=O)OCCCCCCCCCCCC)CCC1CCCN1C` (stereo not drawn) [LD77], the “Luciferase expression as a percentage” value (lipid/DNA 2.5 w/w) is 0.1%; the “Luciferase expression as a percentage” value (lipid/DNA 5 w/w) was 0.1%; the “Luciferase expression as a percentage” value (lipid/DNA 10 w/w) is listed as 6.9%; the “Luciferase expression as a percentage” value (lipid/DNA 15 w/w) came to 11.1%; the “Luciferase expression as a percentage” value (lipid/DNA 20 w/w) came out at 6.4%; the “Luciferase expression as a percentage” value (lipid/DNA 25 w/w) amounted to 2.9%.

Take `CCCCCCCCCCCCCCCCCCOC(=O)CCN(CCC(=O)OCCCCCCCCCCCCCCCCCC)CCc1ccc(OC)c(OC)c1` [LH17]: the “Luciferase expression as a percentage” value was found to be 0.0% (lipid/DNA 2.5 w/w); 0.0% (lipid/DNA 5 w/w); 0.0% (lipid/DNA 10 w/w); 0.0% (lipid/DNA 15 w/w); 0.0% (lipid/DNA 20 w/w); 0.0% (lipid/DNA 25 w/w).
